Values joined by “and” are separate entries in the source; they are usually repeats but may differ in a detail not shown here. Identical values can stand only once.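 Five concentrations, 48 hours, 96-well plates. GI50 = concentration required for 50% inhibition of growth. TGI: concentration producing complete growth inhibition.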
Key:
Test in all cases: DTP human tumour cell line panel, 48 h
ACHN renal = system: ACHN renal
EKVX NSCLC = system: EKVX NSCLC
SK-MEL-5 melanoma = system: SK-MEL-5 melanoma
PC-3 prostate = system: PC-3 prostate
M14 melanoma = system: M14 melanoma
HS 578T breast = system: HS 578T breast
SK-OV-3 ovarian = system: SK-OV-3 ovarian
NCI/ADR-RES ovarian = system: NCI/ADR-RES ovarian
K-562 leukemia = system: K-562 leukemia
SF-268 CNS = system: SF-268 CNS
HCT-15 colon = system: HCT-15 colon
NCI-H522 lung = system: NCI-H522 lung
SN12C renal = system: SN12C renal
MALME-3M melanoma = system: MALME-3M melanoma
UO-31 renal = system: UO-31 renal
HCT-116 colon = system: HCT-116 colon
CAKI-1 renal = system: CAKI-1 renal
SK-MEL-28 melanoma = system: SK-MEL-28 melanoma
RPMI-8226 leukemia = system: RPMI-8226 leukemia
LOX IMVI melanoma = system: LOX IMVI melanoma
HOP-62 NSCLC = system: HOP-62 NSCLC
SNB-75 CNS = system: SNB-75 CNS
DU-145 prostate = system: DU-145 prostate
BT-549 breast = system: BT-549 breast
OVCAR-8 ovarian = system: OVCAR-8 ovarian
SR leukemia = system: SR leukemia
KM12 colon = system: KM12 colon
MDA-MB-435 = system: MDA-MB-435
U251 CNS = system: U251 CNS
MDA-N = system: MDA-N
SW-620 colon = system: SW-620 colon
HCC-2998 colon = system: HCC-2998 colon
RXF 393 renal = system: RXF 393 renal
UACC-257 melanoma = system: UACC-257 melanoma
SF-539 CNS = system: SF-539 CNS
HL-60(TB) leukemia = system: HL-60(TB) leukemia
OVCAR-3 ovarian = system: OVCAR-3 ovarian
T-47D breast = system: T-47D breast
OVCAR-5 ovarian = system: OVCAR-5 ovarian
UACC-62 melanoma = system: UACC-62 melanoma
HT29 colon = system: HT29 colon
786-0 renal = system: 786-0 renal
MDA-MB-231 breast = system: MDA-MB-231 breast
A549 NSCLC = system: A549 NSCLC
TK-10 renal = system: TK-10 renal
CCRF-CEM leukemia = system: CCRF-CEM leukemia
COLO 205 colon = system: COLO 205 colon
NCI-H460 lung = system: NCI-H460 lung
SF-295 CNS = system: SF-295 CNS
OVCAR-4 ovarian = system: OVCAR-4 ovarian
NCI-H226 lung = system: NCI-H226 lung
SNB-19 CNS = system: SNB-19 CNS
A498 renal = system: A498 renal
HOP-92 NSCLC = system: HOP-92 NSCLC
IGROV1 ovarian = system: IGROV1 ovarian
SK-MEL-2 melanoma = system: SK-MEL-2 melanoma
NCI-H23 lung = system: NCI-H23 lung
MOLT-4 leukemia = system: MOLT-4 leukemia
MCF7 breast = system: MCF7 breast

In the case of `c1ccc(P(CCP(CCP(c2ccccc2)c2ccccc2)c2ccccc2)CCP(c2ccccc2)c2ccccc2)cc1` (stereo not given), the GI50 (ACHN renal) is reported as over 10 µM, the TGI (ACHN renal) is reported as over 10 µM and the GI50 (EKVX NSCLC) is reported as over 10 µM. The TGI (EKVX NSCLC) was over 10 µM, the GI50 (SK-MEL-5 melanoma) was > 10 µM and 4.12 µM and the TGI (SK-MEL-5 melanoma) was over 10 µM. The GI50 (PC-3 prostate) was over 10 µM, the TGI (PC-3 prostate) was over 10 µM and the GI50 (M14 melanoma) was > 10 µM and 4.18 µM. The TGI (M14 melanoma) was over 10 µM, the TGI (HS 578T breast) was over 10 µM and the TGI (SK-OV-3 ovarian) was over 10 µM. For the same compound, the TGI (NCI/ADR-RES ovarian) was over 10 µM, the TGI (K-562 leukemia) was over 10 µM and the GI50 (SF-268 CNS) was > 10 µM and 3.71 µM. For the same compound, the TGI (SF-268 CNS) was over 10 µM, the TGI (HCT-15 colon) was over 10 µM and the TGI (NCI-H522 lung) was 5.13 µM. For the same compound, the GI50 (SN12C renal) was > 10 µM and 3.94 µM, the TGI (SN12C renal) was over 10 µM and the TGI (MALME-3M melanoma) was over 10 µM. For the same compound, the TGI (UO-31 renal) was over 10 µM, the TGI (HCT-116 colon) was over 10 µM and the GI50 (CAKI-1 renal) was > 10 µM and 3 µM. For the same compound, the TGI (CAKI-1 renal) was over 10 µM, the GI50 (SK-MEL-28 melanoma) was > 10 µM and 2.01 µM and the TGI (SK-MEL-28 melanoma) was over 10 µM. The TGI (RPMI-8226 leukemia) was over 10 µM, the TGI (LOX IMVI melanoma) was 2.84 µM and the TGI (HOP-62 NSCLC) was over 10 µM. The GI50 (SNB-75 CNS) was 4.55 µM and 1.91 µM, the TGI (SNB-75 CNS) was over 10 µM and the TGI (DU-145 prostate) was over 10 µM. For the same compound, the TGI (BT-549 breast) was over 10 µM, the GI50 (OVCAR-8 ovarian) was > 10 µM and 1.87 µM and the TGI (OVCAR-8 ovarian) was over 10 µM. The TGI (SR leukemia) was over 10 µM, the GI50 (KM12 colon) was > 10 µM and 1.39 µM and the TGI (KM12 colon) was over 10 µM. The GI50 (MDA-MB-435) was > 10 µM and 3.67 µM, the TGI (MDA-MB-435) was over 10 µM and the GI50 (U251 CNS) was > 10 µM and 1.04 µM. For the same compound, the TGI (U251 CNS) was over 10 µM, the GI50 (MDA-N) was > 10 µM and 3.35 µM and the TGI (MDA-N) was over 10 µM. The TGI (SW-620 colon) was over 10 µM, the TGI (HCC-2998 colon) was 4.52 µM and the TGI (RXF 393 renal) was over 10 µM. The TGI (UACC-257 melanoma) was over 10 µM, the TGI (SF-539 CNS) was > 10 µM and 9.84 µM and the TGI (HL-60(TB) leukemia) was 3.69 µM. For the same compound, the GI50 (OVCAR-3 ovarian) was over 10 µM, the TGI (OVCAR-3 ovarian) was over 10 µM and the TGI (T-47D breast) was 4.79 µM. The TGI (OVCAR-5 ovarian) was over 10 µM, the TGI (UACC-62 melanoma) was over 10 µM and the TGI (HT29 colon) was over 10 µM. For the same compound, the TGI (786-0 renal) was 3.21 µM, the GI50 (MDA-MB-231 breast) was > 10 µM and 3.58 µM and the TGI (MDA-MB-231 breast) was over 10 µM. For the same compound, the TGI (A549 NSCLC) was over 10 µM, the TGI (TK-10 renal) was over 10 µM and the TGI (CCRF-CEM leukemia) was over 10 µM. The GI50 (COLO 205 colon) was > 10 µM and 2.08 µM, the TGI (COLO 205 colon) was over 10 µM and the TGI (NCI-H460 lung) was 3.12 µM. For the same compound, the GI50 (SF-295 CNS) was > 10 µM and 3.56 µM, the TGI (SF-295 CNS) was over 10 µM and the TGI (OVCAR-4 ovarian) was over 10 µM. For the same compound, the TGI (NCI-H226 lung) was over 10 µM, the GI50 (SNB-19 CNS) was over 10 µM and the TGI (SNB-19 CNS) was over 10 µM. The TGI (A498 renal) was over 10 µM, the GI50 (HOP-92 NSCLC) was > 10 µM and 2.25 µM and the TGI (HOP-92 NSCLC) was over 10 µM. The TGI (IGROV1 ovarian) was over 10 µM, the TGI (SK-MEL-2 melanoma) was over 10 µM and the TGI (NCI-H23 lung) was over 10 µM. It also gave a TGI (MOLT-4 leukemia) of 5.85 µM and a TGI (MCF7 breast) of 3.04 µM.

From PubChem BioAssay (NCI)
